Data: patent publication US12459912B2 (priority 2020, dated 2025)
pEC50: −log10 of the molar value. Several values for one entry are separate records, joined by “and”; a condition that tells them apart may be missing. Equal values may be shown once.

Legend:
[1] = molecular target: 5-Hydroxytryptamine (Serotonin) Receptor 1B (5-HT1B) (Homo sapiens, UniProt P28222); test: 5-HT1B/cAMP; type: cell-based; details: EC50 (μM)
[2] = molecular target: 5-Hydroxytryptamine (Serotonin) Receptor 2A (5-HT2A) (Homo sapiens, UniProt P28223); test: 5-HT2A/Calcium Flux; type: cell-based; details: EC50 (μM)
[3] = molecular target: 5-Hydroxytryptamine (Serotonin) Receptor 2B (5-HT2B) (Homo sapiens, UniProt P41595); test: 5-HT2B/Calcium Flux; type: cell-based; details: EC50 (μM)
[4] = molecular target: T1, 5-Hydroxytryptamine (Serotonin) Receptor 3A (5-HT3A) (Homo sapiens, UniProt P46098); test: 5-HT3A/Ion Channel; type: cell-based; details: EC50 (μM)
T1 construct: expressed in transfected cells

[5] = molecular target: 5-Hydroxytryptamine (Serotonin) Receptor 1A (5-HT1A) (Homo sapiens, UniProt P08908); test: 5-HT1A/cAMP; type: cell-based
[6] = molecular target: ADRA1A (Adrenergic Receptor on α1A) (Homo sapiens, UniProt P35348); test: ADRA1A/Calcium Flux; type: cell-based; details: EC50 (μM)
[7] = molecular target: ADRA2A (Adrenergic Receptor on α2A) (Homo sapiens, UniProt P08913); test: ADRA2A/cAMP; type: cell-based
[8] = molecular target: ADRB2 (Adrenergic Receptor β2) (Homo sapiens, UniProt P07550); test: ADRB2/cAMP; type: cell-based; details: EC50 (μM)
[9] = molecular target: HRH1 (Histamine Receptor H1) (Homo sapiens, UniProt P35367); test: cell-based
[10] = molecular target: ADORA2A (Adenosine Receptor A2A) (Homo sapiens, UniProt P29274); test: ADORA2A/Calcium Flux; type: cell-based
[11] = molecular target: ADRB1 (Adrenergic Receptor β1) (Homo sapiens, UniProt P08588); test: ADRB1/cAMP; type: cell-based
[12] = molecular target: CCKAR (Cholecystokinin Receptor A) (Homo sapiens, UniProt P32238); test: CCKAR/Calcium Flux; type: cell-based
[13] = molecular target: CHRM2 (Muscarinic acetylcholine Receptor M2) (Homo sapiens, UniProt P08172); test: CHRM2/cAMP; type: cell-based
[14] = molecular target: CHRM3 (Muscarinic acetylcholine Receptor M3) (Homo sapiens, UniProt P20309); test: cell-based
[15] = molecular target: CNR2 (Cannabinoid Receptor 2) (Homo sapiens, UniProt P34972); test: CNR2/cAMP; type: cell-based
[16] = molecular target: EDNRA (Endothelin Receptor Type A) (Homo sapiens, UniProt P25101); test: EDNRA/Calcium Flux; type: cell-based
[17] = molecular target: OPRD1 (Opioid Receptor Delta 1) (Homo sapiens, UniProt P41143); test: OPRD1/cAMP; type: cell-based
[18] = molecular target: T2, nAChR(a4/b2) (Nicotinic acetylcholine Receptor α4 β2) (Homo sapiens, UniProt P17787+P43681); test: cell-based; details: EC50 (μM)
T2 construct: expressed in transfected cells

[19] = molecular target: T3, CAV1.2 (Voltage-gated L-type calcium channel) (Homo sapiens, UniProt Q13936); test: CAV1.2/Ion Channel; type: cell-based
T3 construct: expressed in transfected cells

[20] = system: T4, GABAA (Gamma-aminobutyric acid Receptor A); type: cell-based
T4 construct: other: opener

hERG = molecular target: T5, hERG (Homo sapiens, UniProt Q12809); test: hERG/Ion Channel; type: cell-based
T5 construct: expressed in transfected cells

[21] = molecular target: T6, DAT (Dopamine transporter) (Homo sapiens, UniProt Q01959); test: DAT/Transporter (fluorescent substrate uptake); type: cell-based
T6 construct: expressed in transfected cells

[22] = molecular target: T7, NET (Norepinephrine transporter) (Homo sapiens, UniProt P23975); test: NET/Transporter (fluorescent substrate uptake); type: cell-based
T7 construct: expressed in transfected cells

[23] = molecular target: T8, SERT (Serotonin transporter) (Homo sapiens, UniProt P31645); test: cell-based
T8 construct: expressed in transfected cells

[24] = molecular target: T9, MAOA (Monoamine oxidase type A) (Homo sapiens, UniProt P21397); test: MAOA/Enzymatic; type: biochemical
T9 construct: purchased Sigma

[25] = molecular target: T10, AChE (Acetylcholinesterase) (Homo sapiens, UniProt P22303); test: AChE/Enzymatic; type: biochemical
T10 construct: purchased R&D Systems

COX2 (Cyclooxygenase 2) = molecular target: T11, COX2 (Cyclooxygenase 2) (Homo sapiens, UniProt P35354); test: COX2/Enzymatic; type: biochemical
T11 construct: purchased BPS Bioscience

[26] = molecular target: T12, PDE3A (cGMP-inhibited cyclic nucleotide phosphodiesterase 3A) (Homo sapiens, UniProt Q14432); test: PDE3A/Enzymatic; type: biochemical
T12 construct: purchased Signal Chem

[27] = molecular target: T13, ROCK1 (Rho Associated Coiled-Coil Containing Protein Kinase 1) (Homo sapiens, UniProt Q13464); test: ROCK1/Binding (KINOMEscan)
T13 construct: made in house; host or cells: E. coli BL21-derived host (T7 phage) or HEK-293

[28] = molecular target: T14, INSR (Insulin Receptor (tyrosine kinase)) (Homo sapiens, UniProt P06213); test: INSR/Binding (KINOMEscan)
T14 construct: made in house; host or cells: E. coli BL21-derived host (T7 phage) or HEK-293

[29] = molecular target: AR (Nuclear Hormone Androgen Receptor) (Homo sapiens, UniProt P10275); test: AR/NHR Nuclear Translocation; type: cell-based
[30] = molecular target: GR (Nuclear Hormone Glucocorticoid Receptor) (Homo sapiens, UniProt P04150); test: GR/NHR Protein Interaction; type: cell-based
[31] = molecular target: T15, LCK (Lymphocyte Cell-Specific Protein-Tyrosine Kinase (Src family)) (Homo sapiens, UniProt P06239); test: LCK/Binding (KINOMEscan)
T15 construct: made in house; host or cells: E. coli BL21-derived host (T7 phage) or HEK-293

[32] = molecular target: T16, VEGFR2 (Vascular endothelial growth factor receptor 2 (KDR tyrosine kinase)) (Homo sapiens, UniProt P35968); test: biochemical; type: binding
T16 construct: made in house; host or cells: E. coli BL21-derived host (T7 phage) or HEK-293

CNC(C)Cc1ccc2ccsc2c1 (stereo not shown) [drawing 522]
EC50 ([1]; agonist): 0.024 µM
EC50 ([1]; antagonist): > 10 µM
EC50 ([2]; agonist): 0.959 µM
EC50 ([2]; antagonist): 1.72 µM
EC50 ([3]; agonist): > 10 µM
EC50 ([3]; antagonist): 0.072 µM
EC50 ([4]; blocker): 5.18 µM
EC50 ([4]; opener): > 10 µM
pEC50 [5]: < 5.00
EC50 ([6]; agonist): > 10 µM
EC50 ([6]; antagonist): 3.43 µM
pEC50 [7]: < 5.00
EC50 ([8]; agonist): > 10 µM
EC50 ([8]; antagonist): 5.79 µM
pEC50 [9]: < 5.00
pEC50 [10]: < 5.00
pEC50 [11]: < 5.00
pEC50 [12]: < 5.00
pEC50 [13]: < 5.00
pEC50 [14]: < 5.00
pEC50 [15]: < 5.00
pEC50 [16]: < 5.00
pEC50 [17]: < 5.00
EC50 [18]: > 10 µM and 4.44 µM
pEC50 [19]: < 5.00
pEC50 [20]: < 5.00
pEC50 (hERG): < 5.00
pEC50 [21]: 6.49
pEC50 [22]: 6.16
pEC50 [23]: < 5.00
pEC50 [24]: 6.02
pEC50 [25]: < 5.00
pEC50 (COX2 (Cyclooxygenase 2)): < 5.00
pEC50 [26]: < 5.00
pEC50 [27]: < 5.00
pEC50 [28]: < 5.00
pEC50 [29]: < 5.00
pEC50 [30]: < 5.00
pEC50 [31]: < 5.00
pEC50 [32]: < 5.00
